Experimental data reported in US8058309B2, “Protein kinase modulators and therapeutic uses thereof” (Novotyr Therapeutics Ltd., priority 2006, dated 2011).

Tests used:
[1] = target: T1, EGFR (Homo sapiens, UniProt P00533); test: EGFR activation and EGF-induced signaling in PC3 cells; format: cell-based; details: EGF stimulation
T1 construct: endogenous in cells; host or cells: PC3
Description: (§1) Tyrosine autophosphorylation of the β-subunit of IGF1R as well as downstream signaling induced by IGF1R were assayed in breast cancer MCF7 cells. Tyrosine autophosphorylation of the EGFR and the EGFR signaling was assayed in prostate cancer PC3 cells. Tyrosine autophosphorylation of the PDGFR and its signaling was assayed in fibroblasts overexpres sing PDGFR. Tyro sine autophosphorylation of the IR and its signaling was assayed in fibroblasts overexpressing IR. Cells were seeded in 6-well plates (MCF7-250,000 cells/well, PC3-150,000 cells/well, fibroblasts-140,000 cells/well) and 24 hours later medium was replaced by serum-free medium (DMEM supplemented with 100 units/ml penicillin and 100 μg/ml streptomycin). Following 20 hours of serum-starvation medium was replaced with medium containing various concentrations of the inhibitors in 0.1% DMSO for additional 4 hours. Cells were then stimulated for 5 min with 50 ng/ml IGF-1 (MCF7 cells), 20 ng/ml EGF (PC3 cells), 50 ng/ml PDGF (fibroblasts overexpressing PDGFR) or 100 nM insulin (fibroblasts overexpressing IR), washed twice with PBS and lysed by boiling sample buffer (10% glycerol, 50 mM Tris-HCl, pH 6.8, 3% SDS, and 5%, β-mercaptoethanol). Equal amounts of protein per lane were separated by 8% SDS-PAGE and transferred to a nitrocellulose membrane (Sartorius AG). […]

[2] = target: T2, IGF1R (Homo sapiens, UniProt P08069); test: Inhibition of IGF1-induced signaling in intact MCF7 cells (western blot); format: cell-based; details: for Inhibition of IGF1R autophosphorylation and IGF1-induced signaling (IRS1 pTyr, Akt/PKB, MAPK/ERK): 4 h exposure, IGF1 stimulation
T2 construct: made in house
Description: Tyrosine autophosphorylation of the β-subunit of IGF1R as well as downstream signaling induced by IGF1R were assayed in breast cancer MCF7 cells. Tyrosine autophosphorylation of the EGFR and the EGFR signaling was assayed in prostate cancer PC3 cells. Tyrosine autophosphorylation of the PDGFR and its signaling was assayed in fibroblasts overexpres sing PDGFR. Tyro sine autophosphorylation of the IR and its signaling was assayed in fibroblasts overexpressing IR. Cells were seeded in 6-well plates (MCF7-250,000 cells/well, PC3-150,000 cells/well, fibroblasts-140,000 cells/well) and 24 hours later medium was replaced by serum-free medium (DMEM supplemented with 100 units/ml penicillin and 100 μg/ml streptomycin). Following 20 hours of serum-starvation medium was replaced with medium containing various concentrations of the inhibitors in 0.1% DMSO for additional 4 hours. Cells were then stimulated for 5 min with 50 ng/ml IGF-1 (MCF7 cells), 20 ng/ml EGF (PC3 cells), 50 ng/ml PDGF (fibroblasts overexpressing PDGFR) or 100 nM insulin (fibroblasts overexpressing IR), washed twice with PBS and lysed by boiling sample buffer (10% glycerol, 50 mM Tris-HCl, pH 6.8, 3% SDS, and 5%, β-mercaptoethanol). Equal amounts of protein per lane were separated by 8% SDS-PAGE and transferred to a nitrocellulose membrane (Sartorius AG). Phosphorylated proteins were immunoblotted with anti-phospho-IGF1R (phosphor-IGF1R), anti-phosphotyrosine-IRS1 (phospho-IRS1), anti-phospho(T308)Akt (phospho-PKB), anti-phospho-Erk (phospho-ERK), anti-phosphotyrosine 4G10&PY20 (pY-EGFR or pY-PDGFR), anti-phospho-Ser^636/639-IRS1 (pS^636/639-IRS1) and anti-phospho-STAT3 (phospho-STAT3) antibodies. Detection was performed with horseradish peroxidase-conjugated secondary antibody using the ECL system. Blots were then stripped of antibodies, blocked with TBST with 5% low fat milk and re-probed with antibodies detecting both the phosphorylated and the non-phosphorylated corresponding proteins e.g. IGF1Rβ, IRS1, PKB, ERK, IRβ, PDGFR and Stat3.

[3] = tested on: B16 tumors; test: Melanoma B16 tumor growth; format: in vivo, nude mice; details: IP, 20 mg/kg, 1/day
Description: (§2) Human hormone-refractory prostate cancer PC3 cells (ATCC, 1.5×10^6 cells per mouse) were injected subcutaneously into the right leg of Nude:Hsd mice (purchased from Harlan). Ten days later, when palpable tumors had developed, mice were divided into 3 groups with similar average tumor size. […] The mice treated with compound 7 group were daily injected with compound 7 dissolved in the below described vehicle, and the vehicle-treated group (veh) was daily injected by the vehicle alone. Vehicle included 4.4% DMSO, 1.2% Ethanol and 50% PEG400 in DDW; Groups were composed of 3 mice per group. Dose administered IP was 50 mg/Kg (4 ml/Kg) once a day for one month. The length (l) and the width (w) of the tumors were measured every day and the volumes of the tumors were calculated as follows: v=1w^2/2. Graphs present average volumes of the tumors versus time in days. The procedure was followed for the other described in-vivo studies with the following modifications:
The mouse B16 melanoma cells (1.5×10^6 cells per mouse) were injected subcutaneously into the right leg of male Nude:Hsd mice (purchased from Harlan). Inhibitors were injected IP daily at a dose of 20 mg/kg dissolved in 4.4% % DMSO, 1.2% EtOH, 33% PEG-400 in DDW at volume of 4 ml/kg.

[4] = tested on: MEK; test: MEK activity in cells (ERK phosphorylation); format: cell-based
Description: as §1

[5] = tested on: primary keratinocytes; test: In-vitro inhibition of keratinocyte growth; format: cell-based; details: growth factor enriched medium
Description: Primary keratinocytes were seeded in 96-well plates in growth factor enriched medium. After 48 hours medium was refreshed and compound 7 was added at the indicated concentrations (0 is 0.1% DMSO which was kept constant in all wells). Every 24 hours medium and compound 7 were refreshed, and 5 days following seeding cells were fixed with 0.5% gluteraldehide for 10 min, stained with Methylene-Blue. Access stain was washed away and the bound stain was extracted by 0.1N HCl. Absorbance at 620 nm wavelength was read in ELISA reader.

[6] = target: T3, IR (Homo sapiens, UniProt P06213); test: Insulin receptor activation and signaling in fibroblasts overexpressing IR; format: cell-based; details: fibroblasts over-expressing IR, insulin stimulation
T3 construct: expressed in transfected cells; host or cells: NIH3T3 fibroblasts over expressing IR
Description: as §1

[7] = tested on: PDGFR; test: PDGFR activation and signaling in fibroblasts overexpressing PDGFR; format: cell-based; details: fibroblasts over-expressing PDGFR, PDGF stimulation
Description: as §1

[8] = tested on: PC3 tumors; test: Hormone-refractory prostate cancer PC3 xenograft tumor growth; format: in vivo, nude mice
Description: as §2, with “modifications: […]” for “modifications:”

[9] = target: T4, PDK (Homo sapiens, UniProt O15530); test: PDK activity in cells (PKB Thr308 phosphorylation); format: cell-based
T4 construct: endogenous in cells
Description: as §1

[10] = tested on: Panc1 tumors; test: Pancreatic cancer Panc1 xenograft tumor growth; format: in vivo, nude mice; details: intratumoral, 1/day, 125 μg/day
Description: as §2
Human pancreatic cancer Pancl cells (2×10^6 cells per mouse) were injected subcutaneously into the right leg of male Nude:Hsd mice (purchased from Harlan). Compound 7 was injected intratumorally (IT) daily at doses of 125 μg/mouse in 0.06% DMSO and 2.16% PEG400 in saline.

[11] = tested on: YUMAC tumors; test: Human melanoma YUMAC xenograft tumor growth; format: in vivo, nude mice; details: IP, 20 mg/kg, 1/day
Description: as §2
The human YUMAC metastatic melanoma cells (2×10^6 cells per mouse), provided by Dr. Ruth Halaban (Yale University), were injected subcutaneously into the right leg of male Nude:Hsd mice (purchased from Harlan). Inhibitors were injected IP daily at a dose of 20 mg/kg dissolved in 8% EtOH, 2% Tween-80, 20% PEG-400 and 20% solutol in DDW at volume of 4 ml/kg.

T2 sequence (P08069 31-1367, species assumed): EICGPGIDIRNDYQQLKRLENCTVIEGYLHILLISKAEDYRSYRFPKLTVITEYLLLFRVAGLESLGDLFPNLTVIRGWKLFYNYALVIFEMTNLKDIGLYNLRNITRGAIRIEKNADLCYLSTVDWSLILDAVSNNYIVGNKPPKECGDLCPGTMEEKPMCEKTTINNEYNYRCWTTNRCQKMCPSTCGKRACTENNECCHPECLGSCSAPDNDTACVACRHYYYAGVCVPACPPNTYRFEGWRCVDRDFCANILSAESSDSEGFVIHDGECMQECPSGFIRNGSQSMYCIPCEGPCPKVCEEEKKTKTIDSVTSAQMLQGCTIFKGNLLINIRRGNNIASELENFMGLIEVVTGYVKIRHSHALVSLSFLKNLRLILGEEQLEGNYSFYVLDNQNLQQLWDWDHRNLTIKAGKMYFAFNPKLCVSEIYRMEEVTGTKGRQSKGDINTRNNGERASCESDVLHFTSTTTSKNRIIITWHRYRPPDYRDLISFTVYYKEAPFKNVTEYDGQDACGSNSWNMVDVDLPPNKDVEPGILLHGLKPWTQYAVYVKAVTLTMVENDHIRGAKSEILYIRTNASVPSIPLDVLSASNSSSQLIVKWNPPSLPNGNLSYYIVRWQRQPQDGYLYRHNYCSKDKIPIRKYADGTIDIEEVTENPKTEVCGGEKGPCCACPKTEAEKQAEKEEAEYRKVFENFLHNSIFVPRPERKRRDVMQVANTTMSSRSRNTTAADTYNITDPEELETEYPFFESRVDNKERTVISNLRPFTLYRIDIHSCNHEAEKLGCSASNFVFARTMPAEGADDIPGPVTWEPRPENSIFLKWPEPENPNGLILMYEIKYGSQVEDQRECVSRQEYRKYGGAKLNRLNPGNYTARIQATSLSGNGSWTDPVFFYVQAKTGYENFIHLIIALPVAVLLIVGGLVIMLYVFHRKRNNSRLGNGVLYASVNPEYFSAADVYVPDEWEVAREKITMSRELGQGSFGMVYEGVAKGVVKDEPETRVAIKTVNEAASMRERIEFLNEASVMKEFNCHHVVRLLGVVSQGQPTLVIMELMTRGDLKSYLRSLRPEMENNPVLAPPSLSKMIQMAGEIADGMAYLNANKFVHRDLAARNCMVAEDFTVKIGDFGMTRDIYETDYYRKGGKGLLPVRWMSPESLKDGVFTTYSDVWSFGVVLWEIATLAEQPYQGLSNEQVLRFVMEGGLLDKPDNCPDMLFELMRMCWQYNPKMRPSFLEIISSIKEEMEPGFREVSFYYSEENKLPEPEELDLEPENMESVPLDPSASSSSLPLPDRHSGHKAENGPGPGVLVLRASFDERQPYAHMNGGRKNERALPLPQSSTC
T1 sequence (P00533 25-1210): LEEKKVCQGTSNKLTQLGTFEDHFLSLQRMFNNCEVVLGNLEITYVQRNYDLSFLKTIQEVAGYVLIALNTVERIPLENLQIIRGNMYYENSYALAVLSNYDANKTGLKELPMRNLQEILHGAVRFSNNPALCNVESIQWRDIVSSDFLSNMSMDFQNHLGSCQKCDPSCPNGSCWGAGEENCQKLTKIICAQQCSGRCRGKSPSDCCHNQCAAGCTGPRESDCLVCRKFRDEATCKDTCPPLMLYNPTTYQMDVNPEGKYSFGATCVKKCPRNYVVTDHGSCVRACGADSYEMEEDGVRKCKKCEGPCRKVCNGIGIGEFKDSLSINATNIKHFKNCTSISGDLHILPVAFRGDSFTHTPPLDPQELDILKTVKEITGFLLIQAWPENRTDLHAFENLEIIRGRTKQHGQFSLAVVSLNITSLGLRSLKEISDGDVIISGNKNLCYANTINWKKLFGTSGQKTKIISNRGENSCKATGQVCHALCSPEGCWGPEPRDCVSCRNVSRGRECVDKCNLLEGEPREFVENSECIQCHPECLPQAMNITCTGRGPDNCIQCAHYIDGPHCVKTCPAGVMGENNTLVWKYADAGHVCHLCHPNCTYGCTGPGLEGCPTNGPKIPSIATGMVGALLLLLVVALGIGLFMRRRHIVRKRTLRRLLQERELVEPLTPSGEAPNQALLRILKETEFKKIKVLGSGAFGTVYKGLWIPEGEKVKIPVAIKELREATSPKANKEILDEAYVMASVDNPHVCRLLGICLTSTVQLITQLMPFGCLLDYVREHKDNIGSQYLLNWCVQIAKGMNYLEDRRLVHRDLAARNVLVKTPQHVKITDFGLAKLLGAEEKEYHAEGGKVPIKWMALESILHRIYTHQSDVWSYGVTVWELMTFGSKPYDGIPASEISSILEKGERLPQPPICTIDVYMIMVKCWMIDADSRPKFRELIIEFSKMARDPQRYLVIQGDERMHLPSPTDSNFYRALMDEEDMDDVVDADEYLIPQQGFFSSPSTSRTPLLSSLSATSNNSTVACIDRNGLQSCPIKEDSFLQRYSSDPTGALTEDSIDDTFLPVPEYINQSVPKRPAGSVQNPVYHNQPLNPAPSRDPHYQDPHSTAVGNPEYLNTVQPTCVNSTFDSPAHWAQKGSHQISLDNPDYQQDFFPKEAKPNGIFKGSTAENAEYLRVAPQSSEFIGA
T4 sequence (O15530 whole entry): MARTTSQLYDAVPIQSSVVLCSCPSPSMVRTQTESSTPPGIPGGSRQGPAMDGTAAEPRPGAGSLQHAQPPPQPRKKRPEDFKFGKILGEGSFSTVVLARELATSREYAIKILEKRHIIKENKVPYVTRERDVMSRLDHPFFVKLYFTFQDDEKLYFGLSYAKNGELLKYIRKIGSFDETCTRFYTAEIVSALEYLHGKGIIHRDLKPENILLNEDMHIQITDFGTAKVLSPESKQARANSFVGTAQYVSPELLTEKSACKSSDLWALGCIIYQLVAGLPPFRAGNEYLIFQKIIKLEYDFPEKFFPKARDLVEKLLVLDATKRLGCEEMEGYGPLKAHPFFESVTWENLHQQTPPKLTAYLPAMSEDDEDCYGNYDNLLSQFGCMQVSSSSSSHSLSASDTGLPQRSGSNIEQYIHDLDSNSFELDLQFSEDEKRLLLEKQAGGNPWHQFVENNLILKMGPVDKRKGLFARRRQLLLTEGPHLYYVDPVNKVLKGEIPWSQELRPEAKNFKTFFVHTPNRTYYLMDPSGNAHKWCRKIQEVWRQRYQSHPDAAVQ
T3 sequence (P06213 28-1382): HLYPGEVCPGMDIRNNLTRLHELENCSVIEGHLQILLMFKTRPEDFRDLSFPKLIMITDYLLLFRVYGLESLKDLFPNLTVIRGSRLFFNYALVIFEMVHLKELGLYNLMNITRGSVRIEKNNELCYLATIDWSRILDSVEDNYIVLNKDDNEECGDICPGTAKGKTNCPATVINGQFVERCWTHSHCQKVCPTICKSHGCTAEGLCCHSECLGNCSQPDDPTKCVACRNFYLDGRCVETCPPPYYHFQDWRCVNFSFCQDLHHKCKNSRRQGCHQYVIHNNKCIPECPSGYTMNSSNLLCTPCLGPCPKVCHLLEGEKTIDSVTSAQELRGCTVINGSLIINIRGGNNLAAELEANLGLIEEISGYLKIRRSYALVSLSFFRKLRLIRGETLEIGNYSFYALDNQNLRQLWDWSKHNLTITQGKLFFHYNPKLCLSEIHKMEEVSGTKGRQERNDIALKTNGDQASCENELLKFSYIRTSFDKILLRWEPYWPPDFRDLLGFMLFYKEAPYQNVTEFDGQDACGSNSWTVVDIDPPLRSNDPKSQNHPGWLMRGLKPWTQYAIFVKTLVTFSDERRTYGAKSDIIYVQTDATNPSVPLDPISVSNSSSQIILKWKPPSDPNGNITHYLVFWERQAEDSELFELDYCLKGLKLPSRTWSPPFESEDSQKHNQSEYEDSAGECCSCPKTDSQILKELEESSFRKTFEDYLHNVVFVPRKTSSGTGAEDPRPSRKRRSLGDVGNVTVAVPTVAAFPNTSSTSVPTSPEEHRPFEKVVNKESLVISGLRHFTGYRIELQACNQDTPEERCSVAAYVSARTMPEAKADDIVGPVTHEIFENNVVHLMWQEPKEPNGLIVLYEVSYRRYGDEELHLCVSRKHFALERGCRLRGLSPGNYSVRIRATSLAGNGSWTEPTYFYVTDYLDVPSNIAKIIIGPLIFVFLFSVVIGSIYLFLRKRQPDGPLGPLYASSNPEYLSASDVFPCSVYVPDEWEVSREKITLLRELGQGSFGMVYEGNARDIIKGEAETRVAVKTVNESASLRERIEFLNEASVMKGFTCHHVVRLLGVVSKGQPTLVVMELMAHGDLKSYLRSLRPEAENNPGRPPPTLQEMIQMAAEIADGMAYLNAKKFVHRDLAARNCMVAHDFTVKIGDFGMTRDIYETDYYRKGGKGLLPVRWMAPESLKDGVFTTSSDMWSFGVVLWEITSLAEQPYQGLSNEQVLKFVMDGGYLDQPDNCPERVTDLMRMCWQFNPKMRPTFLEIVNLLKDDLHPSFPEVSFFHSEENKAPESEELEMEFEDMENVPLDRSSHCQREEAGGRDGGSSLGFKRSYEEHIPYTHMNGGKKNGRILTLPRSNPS

Inhibition of EGFR and EGF-induced signaling in intact cells [1]	Inhibition of IR in intact cells [6]	Inhibition of PDK (phosphorylation of PKB Thr308) [9]	IC50 ([2]; read-out: IC50 in inhibition of the Akt/PKB pathway downstream IGF1R) [nM]	Compound	Inhibition of IGF1R autophosphorylation and IGF1-induced signaling (IRS1 pTyr, Akt/PKB, MAPK/ERK) [2]	Growth inhibition of melanoma B16 tumors [3]	Inhibition of MEK (phosphorylation of ERK) [4]	IC50 [5] [nM]	Inhibition of PDGFR in intact cells [7]	Growth inhibition of HRPC PC3 tumors ([8]; IP, 1/day, 50 mg/kg, one month, vs vehicle treated and untreated) [%]	Efficacy on HRPC model by intratumoral administration ([8]; intratumoral administration)	Growth inhibition of pancreatic cancer Panc1 tumors [10] [%]	Growth inhibition of human melanoma YUMAC tumors [11]
inhibited also EGFR	–	–	–	N#C/C(=C\c1cc(O)c(O)c(Br)c1)C(=S)NCc1cc(O)c(O)c(Br)c1 [Compound 6]	inhibited the autophosphorylation of IGF1R	significant inhibitory effect	–	–	–	–	–	–	–
inhibits	inhibits	not inhibited	1000 to 2000	N#C/C(=C\c1cc(O)c(O)c(Br)c1)C(=S)NCc1cc(O)c(O)c(O)c1 [Compound 7]	dramatically inhibited	significant inhibitory effect	not inhibited	2300	inhibits	82	efficient	50	–
–	–	–	–	N#C/C(=C\c1cc(O)c(O)c(I)c1)C(=S)NCc1cc(O)c(O)c(O)c1 [Compound 8]	–	–	–	–	–	–	–	–	inhibition
